Test results reported in patent US20090221642A1, “MUSCARINIC RECEPTOR AGONISTS, COMPOSITIONS, METHODS OF TREATMENT THEREOF, AND PROCESSES FOR PREPARATION THEREOF-176” (AstraZeneca AB, priority 2008, published 2009).
Like-named read-outs stand apart in the source and are kept apart here.

Tests used:
[1] = molecular target: T1, hM3 (human Muscarinic receptor subtype 3) (Homo sapiens, UniProt P20309); test: Human M3 calcium mobilization FLIPR assay; assay type: cell-based; conditions: hM3 expressed in CHO cells, intracellular Ca2+ release
T1 construct: expressed in transfected cells; host or cells: CHO cells (Chinese hamster ovary cells, ATCC)
T1 sequence (P20309 whole entry): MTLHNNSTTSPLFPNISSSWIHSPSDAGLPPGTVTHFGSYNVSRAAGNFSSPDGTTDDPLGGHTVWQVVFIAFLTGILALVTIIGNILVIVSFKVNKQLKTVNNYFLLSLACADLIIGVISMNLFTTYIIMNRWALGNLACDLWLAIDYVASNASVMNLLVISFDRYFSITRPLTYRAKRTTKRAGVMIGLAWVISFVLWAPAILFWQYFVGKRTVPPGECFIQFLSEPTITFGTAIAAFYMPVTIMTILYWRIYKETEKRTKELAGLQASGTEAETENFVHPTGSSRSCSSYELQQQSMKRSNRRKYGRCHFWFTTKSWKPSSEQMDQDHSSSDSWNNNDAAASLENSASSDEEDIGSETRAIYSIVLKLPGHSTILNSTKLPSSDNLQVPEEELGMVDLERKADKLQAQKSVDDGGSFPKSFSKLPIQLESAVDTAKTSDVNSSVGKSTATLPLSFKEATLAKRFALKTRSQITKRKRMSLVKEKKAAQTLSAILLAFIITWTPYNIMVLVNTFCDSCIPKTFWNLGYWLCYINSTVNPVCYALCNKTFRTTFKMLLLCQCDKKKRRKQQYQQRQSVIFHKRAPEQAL
Protocol: (§1) Human M1, rat M1, human M3 and human M5 Calcium Mobilization FLIPR™ Assay
(§2) The compound activity in the present invention (EC50 or IC50) is measured using a 384 plate-based imaging assay that monitors drug induced intracellular Ca^2+ release in whole cells. Activation of hM1 (human Muscarinic receptor subtype 1, gene bank access NM_000738), rM1 (rat Muscarinic receptor subtype 1, gene bank access NM_080773), hM3 (human Muscarinic receptor subtype 3, gene bank access NM_000740NM_000740) and hM5 (human Muscarinic receptor subtype 5, gene bank access NM_0121258), receptors expressed in CHO cells (Chinese hamster ovary cells, ATCC) is quantified in a Molecular Devices FLIPR II™ instrument as an increase in fluorescent signal. Inhibition of hM3 and hM5 by compounds is determined by the decrease in fluorescent signal in response to 2 nM acetylcholine activation.
(§3) Prior to experiment, the cell culture medium is removed from the plates by inversion. […] Plates are incubated at 37° C. for 60 minutes prior to start the experiment. The incubation is terminated by washing the cells four times in assay buffer, leaving a residual 25 μl buffer per well. Cell plates are then transferred to the FLIPR, ready for compound additions.
(§4) The day of experiment, acetylcholine and compounds are diluted in assay buffer in three-fold concentration range (10 points serial dilution) for addition by FLIPR instrument. For all calcium assays, a baseline reading is taken for 10 seconds followed by the addition of 12.5 μl of compounds, resulting in a total well volume of 37.5 μl. Data is collected every second for 60 pictures and then every 6 seconds for 20 pictures prior to the addition of agonist. For hM3 and hM5, before agonist addition, a second baseline reading is taken for 10 seconds followed by the addition of 12.5 μl of agonist or buffer, producing a final volume of 50 μl. After agonist stimulation, the FLIPR continues to collect data every second for 60 pictures and then every 6 seconds for 20 pictures. The fluorescence emission is read using filter 1 (emission 510-570 nm) by the FLIPR on board CCD camera.
(§5) Calcium mobilization output data are calculated as the maximal relative fluorescence unit (RFU) minus the minimal value for both compound and agonist reading frame (except for hM1 and rM1 using only the maximal RFU). Data are analyzed using sigmoidal fits of a non-linear curve-fitting program (XLfit version 4.2.2 Excel add-in version 4.2.2 build 18 math 1Q version 2.1.2 build 18). All pEC50 and plC50 values are reported as arithmetic means ±standard error of mean of ‘n’ independent experiments.

[2] = molecular target: T2, hM5 (human Muscarinic receptor subtype 5) (Homo sapiens, UniProt P08912); test: Human M5 calcium mobilization FLIPR assay; assay type: cell-based; conditions: hM5 expressed in CHO cells, intracellular Ca2+ release
T2 construct: expressed in transfected cells; host or cells: CHO cells (Chinese hamster ovary cells, ATCC)
T2 sequence (P08912 1-532): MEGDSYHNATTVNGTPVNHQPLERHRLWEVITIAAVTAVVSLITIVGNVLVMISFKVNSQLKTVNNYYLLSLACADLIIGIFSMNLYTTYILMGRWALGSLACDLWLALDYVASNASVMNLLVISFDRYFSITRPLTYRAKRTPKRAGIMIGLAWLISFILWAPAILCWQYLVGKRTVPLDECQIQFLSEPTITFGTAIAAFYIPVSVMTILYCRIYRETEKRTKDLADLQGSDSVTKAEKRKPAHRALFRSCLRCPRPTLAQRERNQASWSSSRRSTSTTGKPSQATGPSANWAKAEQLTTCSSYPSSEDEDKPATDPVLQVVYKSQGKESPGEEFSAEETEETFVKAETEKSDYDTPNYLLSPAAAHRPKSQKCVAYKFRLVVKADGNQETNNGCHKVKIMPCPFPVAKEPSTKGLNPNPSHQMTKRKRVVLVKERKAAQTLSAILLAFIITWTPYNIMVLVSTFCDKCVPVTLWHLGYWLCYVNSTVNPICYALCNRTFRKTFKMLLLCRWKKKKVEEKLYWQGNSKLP
Protocol: as §1, §2, §3, §4, §5

Row | SMILES | EC50 ([1]; read-out: hM3 EC50) | EC50 ([2]; read-out: hM5 EC50) | EC50 ([1]; hM3 EC50 (nM)) | EC50 ([2]; hM5 EC50 (nM))
1 | CC1(N2CCC(n3c(=O)[nH]c4cc(F)c(F)cc43)CC2)CCN(C(=O)OCCF)C1 (single isomer, unassigned) [Example 61, 2-fluoroethyl 3-(4-(5,6-difluoro-2-oxo-2,3-dihydro-1H-benzo[d]imidazol-1-yl)piperidin-1-yl)-3-methylpyrrolidine-1-carboxylate] | > 40000 nM | > 2710 nM | – | –
2 | COC(=O)N1CCC(C)(N2CCC(N3C(=O)Cc4ccc(C)cc43)CC2)C1 (single isomer, unassigned) [Example 67, methyl 3-methyl-3-(4-(6-methyl-2-oxoindolin-1-yl)piperidin-1-yl)pyrrolidine-1-carboxylate] | > 33500 nM | > 6710 nM | – | –
3 | COC(=O)N1CCC(C)(N2CCC(N3C(=O)Cc4ccc(C)cc43)CC2)C1 (single isomer, unassigned) [Example 68, methyl 3-methyl-3-(4-(6-methyl-2-oxoindolin-1-yl)piperidin-1-yl)pyrrolidine-1-carboxylate] | 2330 nM | > 4080 nM | – | –
4 | CCOC(=O)N1CCC(C)(N2CCC(N3C(=O)Cc4ccc(C)cc43)CC2)C1 (single isomer, unassigned) [Example 69, ethyl 3-methyl-3-(4-(6-methyl-2-oxoindolin-1-yl)piperidin-1-yl)pyrrolidine-1-carboxylate] | > 40000 nM | 1370 nM | – | –
5 | CCOC(=O)N1CCC(C)(N2CCC(N3C(=O)Cc4ccccc43)CC2)C1 (single isomer, unassigned) [Example 72, ethyl 3-methyl-3-(4-(2-oxoindolin-1-yl)piperidin-1-yl)pyrrolidine-1-carboxylate] | > 40000 nM | > 40000 nM | – | –
6 | CCOC(=O)N1CCC(C)(N2CCC(N3C(=O)Cc4ccccc43)CC2)C1 (single isomer, unassigned) [Example 73, ethyl 3-methyl-3-(4-(2-oxoindolin-1-yl)piperidin-1-yl)pyrrolidine-1-carboxylate] | > 40000 nM | > 40000 nM | – | –
7 | CCOC(=O)N1CCC(C)(N2CCC(N3C(=O)Cc4ccc(F)cc43)CC2)C1 (single isomer, unassigned) [Example 74, ethyl 3-(4-(6-fluoro-2-oxoindolin-1-yl)piperidin-1-yl)-3-methylpyrrolidine-1-carboxylate] | > 40000 nM | > 21200 nM | – | –
8 | CCOC(=O)N1CCC(C)(N2CCC(N3C(=O)Cc4ccc(F)cc43)CC2)C1 (single isomer, unassigned) [Example 75, ethyl 3-(4-(6-fluoro-2-oxoindolin-1-yl)piperidin-1-yl)-3-methylpyrrolidine-1-carboxylate] | > 40000 nM | > 27000 nM | – | –
9 | CCOC(=O)N1CCC(C)(N2CCC(N3C(=O)Cc4cc(F)ccc43)CC2)C1 (single isomer, unassigned) [Example 79, ethyl 3-(4-(5-fluoro-2-oxoindolin-1-yl)piperidin-1-yl)-3-methylpyrrolidine-1-carboxylate] | > 40000 nM | 2540 nM | – | –
10 | CCOC(=O)N1CCC(C)(N2CCC(N3C(=O)Cc4cc(F)c(C)cc43)CC2)C1 (single isomer, unassigned) [Example 81, ethyl 3-(4-(5-fluoro-6-methyl-2-oxoindolin-1-yl)piperidin-1-yl)-3-methylpyrrolidine-1-carboxylate] | > 13300 nM | 1240 nM | – | –
11 | COC(=O)N1CCC(C)(N2CCC(N3C(=O)Cc4cc(F)c(C)cc43)CC2)C1 (single isomer, unassigned) [Example 83, methyl 3-(4-(5-fluoro-6-methyl-2-oxoindolin-1-yl)piperidin-1-yl)-3-methylpyrrolidine-1-carboxylate] | – | – | > 18400 nM | 3560 nM
12 | CCOC(=O)N1CCC(C)(N2CCC(n3c(=O)[nH]c4ccccc43)CC2)C1 (stereo not shown) [Example 1, ethyl 3-methyl-3-(4-(2-oxo-2,3-dihydro-1H-benzo[d]imidazol-1-yl)piperidin-1-yl)pyrrolidine-1-carboxylate] | 1400 nM | 136 nM | – | –
13 | CCNC(=O)N1CCC(C)(N2CCC(n3c(=O)[nH]c4ccccc43)CC2)C1 (stereo not shown) [Example 5, N-ethyl-3-methyl-3-(4-(2-oxo-2,3-dihydro-1H-benzo[d]imidazol-1-yl)piperidin-1-yl)pyrrolidine-1-carboxamide] | > 40000 nM | > 2960 nM | – | –
14 | CC1(N2CCC(n3c(=O)[nH]c4cc(F)ccc43)CC2)CCN(C(=O)OCCF)C1 (stereo not shown) [Example 10, 2-fluoroethyl 3-(4-(5-fluoro-2-oxo-2,3-dihydro-1H-benzo[d]imidazol-1-yl)piperidin-1-yl)-3-methylpyrrolidine-1-carboxylate] | > 40000 nM | 537 nM | – | –
